Data on 20 compounds can be found in patent US12685735B2 (Foghorn Therapeutics Inc., priority 2020, dated 2026).

As usually defined, the IC50 is the concentration that inhibits the measured activity by half.

Assay [1] concerns the target BRG-1 (Homo sapiens, UniProt P51532). Description: ATPase catalytic activity assay of BRG-1 (ADP-Glo). The following applies: ATPase catalytic activity, ADP-Glo; for IC50: read-out: BRG1 IC50 (μM)*; for Emax: read-out: BRG1 Max % Inhibition. Format: biochemical. In short, it runs like this:
(§1)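 Measurement is luminescence, reflecting ADP produced by ATPase turnover. The two-step ADP-Glo detection consists of ATP depletion for 40 min and ADP-to-ATP conversion with luciferase for 60 min, both at room temperature.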
(ADP-Glo turns the ADP formed in a reaction into a luminescent signal.)

For assay [2], the target named is BRM (Homo sapiens, UniProt P51531). Description: ATPase catalytic activity assay of BRM (ADP-Glo). Format: biochemical. The following applies: for IC50: read-out: BRM IC50 (μM)*. The method in brief: as §1
Chain of BRM (P51531 whole entry): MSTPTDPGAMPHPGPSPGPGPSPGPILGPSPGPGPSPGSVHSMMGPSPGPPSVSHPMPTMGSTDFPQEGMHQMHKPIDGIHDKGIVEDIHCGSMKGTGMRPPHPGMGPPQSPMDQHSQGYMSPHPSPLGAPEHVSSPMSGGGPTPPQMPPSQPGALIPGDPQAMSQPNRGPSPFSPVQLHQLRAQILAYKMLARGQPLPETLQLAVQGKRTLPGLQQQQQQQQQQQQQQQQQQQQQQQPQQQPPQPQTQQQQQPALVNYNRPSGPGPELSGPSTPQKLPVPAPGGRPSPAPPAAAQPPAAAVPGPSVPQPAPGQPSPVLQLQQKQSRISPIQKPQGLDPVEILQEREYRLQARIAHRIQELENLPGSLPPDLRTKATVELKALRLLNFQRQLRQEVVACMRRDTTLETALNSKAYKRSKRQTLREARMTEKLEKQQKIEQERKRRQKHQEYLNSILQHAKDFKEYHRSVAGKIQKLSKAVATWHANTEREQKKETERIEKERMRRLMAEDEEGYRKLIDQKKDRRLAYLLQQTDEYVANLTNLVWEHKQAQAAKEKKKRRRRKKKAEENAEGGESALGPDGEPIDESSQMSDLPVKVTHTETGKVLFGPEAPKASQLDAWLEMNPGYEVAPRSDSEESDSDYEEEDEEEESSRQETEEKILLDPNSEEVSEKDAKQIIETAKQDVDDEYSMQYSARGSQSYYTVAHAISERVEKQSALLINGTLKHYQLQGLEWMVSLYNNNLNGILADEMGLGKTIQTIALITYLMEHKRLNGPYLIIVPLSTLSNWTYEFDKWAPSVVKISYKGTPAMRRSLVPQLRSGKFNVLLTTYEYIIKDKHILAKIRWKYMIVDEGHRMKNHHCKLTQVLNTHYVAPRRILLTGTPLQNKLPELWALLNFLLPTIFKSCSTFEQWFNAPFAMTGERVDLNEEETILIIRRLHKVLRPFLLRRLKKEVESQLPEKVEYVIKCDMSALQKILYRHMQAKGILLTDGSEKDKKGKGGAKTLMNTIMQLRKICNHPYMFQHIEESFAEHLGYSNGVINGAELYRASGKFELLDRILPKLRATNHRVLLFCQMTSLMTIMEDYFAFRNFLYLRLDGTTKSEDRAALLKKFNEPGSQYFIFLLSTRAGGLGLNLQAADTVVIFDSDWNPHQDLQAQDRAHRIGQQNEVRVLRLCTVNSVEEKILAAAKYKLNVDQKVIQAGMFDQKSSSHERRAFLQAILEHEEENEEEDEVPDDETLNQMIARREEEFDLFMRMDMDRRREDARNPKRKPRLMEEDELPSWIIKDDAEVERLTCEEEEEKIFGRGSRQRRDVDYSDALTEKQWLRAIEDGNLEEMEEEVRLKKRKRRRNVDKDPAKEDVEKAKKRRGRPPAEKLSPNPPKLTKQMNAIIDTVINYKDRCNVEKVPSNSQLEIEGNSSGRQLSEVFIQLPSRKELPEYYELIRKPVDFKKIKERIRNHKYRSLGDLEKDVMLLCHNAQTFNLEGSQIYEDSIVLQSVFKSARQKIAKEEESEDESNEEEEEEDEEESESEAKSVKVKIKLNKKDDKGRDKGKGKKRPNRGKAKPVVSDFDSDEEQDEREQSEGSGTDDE

Bounds are passed on as bounds.

Chain of BRG-1 (P51532 whole entry): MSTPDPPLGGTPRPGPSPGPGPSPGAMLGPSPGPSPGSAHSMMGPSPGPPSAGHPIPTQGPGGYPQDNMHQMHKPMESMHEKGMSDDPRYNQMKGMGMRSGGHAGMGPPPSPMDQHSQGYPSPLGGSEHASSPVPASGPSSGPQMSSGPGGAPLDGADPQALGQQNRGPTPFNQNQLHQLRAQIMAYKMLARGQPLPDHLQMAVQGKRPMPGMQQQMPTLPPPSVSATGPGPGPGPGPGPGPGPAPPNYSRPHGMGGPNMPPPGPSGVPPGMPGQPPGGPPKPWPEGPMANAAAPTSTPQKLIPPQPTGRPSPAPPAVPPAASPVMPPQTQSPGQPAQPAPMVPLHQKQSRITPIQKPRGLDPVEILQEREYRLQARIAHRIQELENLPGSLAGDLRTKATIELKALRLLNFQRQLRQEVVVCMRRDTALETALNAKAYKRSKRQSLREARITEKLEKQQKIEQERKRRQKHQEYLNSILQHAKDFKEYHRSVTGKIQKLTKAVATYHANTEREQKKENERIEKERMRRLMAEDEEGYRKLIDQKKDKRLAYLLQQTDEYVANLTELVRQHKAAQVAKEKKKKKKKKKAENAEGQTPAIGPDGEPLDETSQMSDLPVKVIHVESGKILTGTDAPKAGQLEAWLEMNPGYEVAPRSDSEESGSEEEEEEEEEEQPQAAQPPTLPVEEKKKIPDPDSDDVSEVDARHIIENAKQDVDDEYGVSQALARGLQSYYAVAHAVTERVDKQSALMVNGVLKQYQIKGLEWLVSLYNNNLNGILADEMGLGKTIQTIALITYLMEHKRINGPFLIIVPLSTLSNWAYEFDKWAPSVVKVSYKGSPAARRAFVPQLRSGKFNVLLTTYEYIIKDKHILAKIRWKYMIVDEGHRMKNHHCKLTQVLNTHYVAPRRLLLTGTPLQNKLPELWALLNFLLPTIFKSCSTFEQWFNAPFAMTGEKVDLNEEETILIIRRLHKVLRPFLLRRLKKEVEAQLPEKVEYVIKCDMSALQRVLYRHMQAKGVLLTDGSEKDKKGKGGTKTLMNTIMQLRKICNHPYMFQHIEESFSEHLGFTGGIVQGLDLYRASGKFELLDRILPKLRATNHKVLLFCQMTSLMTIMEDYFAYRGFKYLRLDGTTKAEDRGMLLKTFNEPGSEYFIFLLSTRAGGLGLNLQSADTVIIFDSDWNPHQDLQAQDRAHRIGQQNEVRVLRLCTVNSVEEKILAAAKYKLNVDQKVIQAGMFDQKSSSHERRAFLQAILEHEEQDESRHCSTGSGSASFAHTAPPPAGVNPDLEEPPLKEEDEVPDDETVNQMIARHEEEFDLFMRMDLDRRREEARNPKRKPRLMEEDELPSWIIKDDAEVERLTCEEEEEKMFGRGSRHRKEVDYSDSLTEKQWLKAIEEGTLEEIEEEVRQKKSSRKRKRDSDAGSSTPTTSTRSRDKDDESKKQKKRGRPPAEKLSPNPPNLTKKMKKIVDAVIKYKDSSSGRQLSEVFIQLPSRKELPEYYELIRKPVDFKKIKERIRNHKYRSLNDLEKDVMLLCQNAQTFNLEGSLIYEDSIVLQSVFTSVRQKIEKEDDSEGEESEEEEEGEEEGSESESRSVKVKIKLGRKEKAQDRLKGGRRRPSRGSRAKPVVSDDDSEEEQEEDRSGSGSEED

Take `Cc1cc(-c2cccc(-c3csc(NC(=O)CNC(=O)c4ccc5c(c4)[C@](C)(CO)CCC5)n3)c2)cc(C)n1` [Compound 232, (R)-N-(2-((4-(3-(2,6-dimethylpyridin-4-yl)phenyl)thiazol-2-yl)amino)-2-oxoethyl)-8-(hydroxymethyl)-8-methyl-5,6,7,8-tetrahydronaphthalene-2-carboxamide]: in assay [1], the IC50 lay within 0.1 to 1 µM and the Emax was more than 80%. For the same compound, in assay [2], the “BRM Max % Inhibition” value is reported as more than 95% and the IC50 is less than 0.1 µM.
On the same counts, the results for `CC1(CO)CCc2ccc(C(=O)NCC(=O)Nc3nc(-c4cccc(-c5cccc(C#N)c5)c4)cs3)cc21` (centres unmarked) [Compound 233, N-[2-[[4-[3-(3-cyanophenyl)phenyl]thiazol-2-yl]amino]-2-oxo-ethyl]-3-(hydroxymethyl)-3-methyl-indane-5-carboxamide] are 0.1 to 1 µM, more than 80%, more than 95% and less than 0.1 µM.
As for `Cc1ccc(C(=O)NCC(=O)Nc2nc(-c3cccc(N4C[C@@H](C)O[C@@H](C)C4)n3)cs2)cc1C(C)(C)CO` [Compound 237, N-(2-((4-(6-((cis)-2,6-dimethylmorpholino)pyridin-2-yl)thiazol-2-yl)amino)-2-oxoethyl)-3-(1-hydroxy-2-methylpropan-2-yl)-4-methylbenzamide], in assay [1], the half-inhibitory concentration (IC50) lay in the range of 0.1 to 1 µM and the Emax is more than 90%. Further, in assay [2], the “BRM Max % Inhibition” value is more than 95% and the IC50 was less than 0.1 µM.
On the same counts, the results for `Cc1ccc(C(=O)NCC(=O)Nc2nc(-c3cccc(N4C[C@@H](C)O[C@@H](C)C4)c3)cs2)cc1C(C)(C)CO` [Compound 238, N-(2-((4-(3-((cis)-2,6-dimethylmorpholino)phenyl)thiazol-2-yl)amino)-2-oxoethyl)-3-(1-hydroxy-2-methylpropan-2-yl)-4-methylbenzamide] are 0.1 to 1 µM, more than 90%, more than 95% and less than 0.1 µM.
For `C[C@@H]1CN(c2cccc(-c3csc(NC(=O)CNC(=O)c4ccc(Cl)c(C(C)(C)CO)c4)n3)n2)C[C@H](C)O1` [Compound 241, 4-chloro-N-[2-[[4-[6-[(cis)-2,6-dimethylmorpholin-4-yl]-2-pyridyl]thiazol-2-yl]amino]-2-oxo-ethyl]-3-(2-hydroxy-1,1-dimethyl-ethyl)benzamide] the same measures were 0.1 to 1 µM, more than 90%, more than 95% and less than 0.1 µM.
For `CCC(C)(CO)c1cccc(C(=O)NCC(=O)Nc2nc(-c3cccc(-c4ccncc4)c3)cs2)c1` (centres unmarked) [Compound 242, 3-[1-(hydroxymethyl)-1-methyl-propyl]-N-[2-oxo-2-[[4-[3-(4-pyridyl)phenyl]thiazol-2-yl]amino]ethyl]benzamide] the same measures were 1 to 5 µM, more than 50%, more than 80% and 0.1 to 1 µM.
Turning to `C[C@]1(CN)CCc2c(C(=O)NCC(=O)Nc3nc(-c4cccc(-c5ccncc5)c4)cs3)cccc21` [Compound 243, (1S)-1-(aminomethyl)-1-methyl-N-[2-oxo-2-[[4-[3-(4-pyridyl)phenyl]thiazol-2-yl]amino]ethyl]indane-4-carboxamide], in assay [1], the IC50 is 1 to 5 µM and the Emax was more than 50%. For the same compound, in assay [2], the “BRM Max % Inhibition” value is more than 80% and the IC50 lay within 0.1 to 1 µM.
For `C[C@@H]1CN(c2cccc(-c3csc(NC(=O)CNC(=O)c4ccc(Cl)c(C(C)(C)CO)c4)n3)c2)C[C@H](C)O1` [Compound 244, 4-chloro-N-[2-[[4-[3-[(cis)-2,6-dimethylmorpholin-4-yl]phenyl]thiazol-2-yl]amino]-2-oxo-ethyl]-3-(2-hydroxy-1,1-dimethyl-ethyl)benzamide] the same measures were 0.1 to 1 µM, more than 95%, more than 95% and less than 0.1 µM.
`Cc1cc(-c2cccc(-c3csc(NC(=O)CNC(=O)c4cc(C)c(C)c(C(C)(C)CN)c4)n3)c2)cc(C)n1` [Compound 245, 3-(2-amino-1,1-dimethyl-ethyl)-N-[2-[[4-[3-(2,6-dimethyl-4-pyridyl)phenyl]thiazol-2-yl]amino]-2-oxo-ethyl]-4,5-dimethyl-benzamide]: in assay [1], the IC50 fell in the range of 1 to 5 µM and the Emax was more than 70%. For the same compound, in assay [2], the “BRM Max % Inhibition” value was more than 95% and the concentration for half-maximal inhibition (IC50) was less than 0.1 µM.
On the same counts, the results for `CC(C)(CO)c1cccc(C(=O)NCC(=O)Nc2nc(-c3cccc(N4CCC(O)CC4)c3)cs2)c1` [Compound 247, 3-(2-hydroxy-1,1-dimethyl-ethyl)-N-[2-[[4-[3-(4-hydroxy-1-piperidyl)phenyl]thiazol-2-yl]amino]-2-oxo-ethyl]benzamide] are 0.1 to 1 µM, more than 80%, more than 95% and 0.1 to 1 µM.
For `C[Si](C)(C)c1cccc(C(=O)NCC(=O)Nc2nc(-c3cccc(-c4ccncc4)c3)cs2)c1` [Compound 248, N-[2-oxo-2-[[4-[3-(4-pyridyl)phenyl]thiazol-2-yl]amino]ethyl]-3-trimethylsilyl-benzamide] the same measures were 1 to 5 µM, more than 30%, more than 40% and 0.1 to 1 µM.
Regarding `Cc1nccc(-c2cccc(-c3csc(NC(=O)CNC(=O)c4ccc5c(c4)[C@](C)(C#N)CC5)n3)n2)n1` [Compound 249, (3R)-3-cyano-3-methyl-N-[2-[[4-[6-(2-methylpyrimidin-4-yl)-2-pyridyl]thiazol-2-yl]amino]-2-oxo-ethyl]indane-5-carboxamide], in assay [1], the IC50 was less than 0.1 µM and the Emax was more than 95%. In addition, in assay [2], the “BRM Max % Inhibition” value is on record as more than 95% and the 50% inhibitory concentration (IC50) is less than 0.1 µM.
Turning to `CC1(C)c2cc(C(=O)NCC(=O)Nc3nc(-c4cccc(-c5ccncc5)c4)cs3)ccc2C[C@@H]1N` [Compound 250, (S)-2-amino-3,3-dimethyl-N-(2-oxo-2-((4-(3-(pyridin-4-yl)phenyl)thiazol-2-yl)amino)ethyl)-2,3-dihydro-1H-indene-5-carboxamide], in assay [1], the half-maximal inhibitory concentration (IC50) is more than 5 µM and the Emax was more than 50%. In assay [2], the “BRM Max % Inhibition” value is more than 70% and the IC50 was in the range of 1 to 5 µM.
For `Cc1cc(-c2cccc(-c3csc(NC(=O)CNC(=O)c4ccc5c(c4)[C@@](C)(CN)CCC5)n3)c2)cc(C)n1` [Compound 251, (4S)-4-(aminomethyl)-N-[2-[[4-[3-(2,6-dimethyl-4-pyridyl)phenyl]thiazol-2-yl]amino]-2-oxo-ethyl]-4-methyl-tetralin-6-carboxamide] the same measures were more than 5 µM, less than 30%, more than 50% and 1 to 5 µM.
On the same counts, the results for `C[C@@H]1CN(c2cccc(-c3csc(NC(=O)CNC(=O)c4cccc5c4OCC[C@]5(C)CO)n3)c2)C[C@H](C)O1` [Compound 252, (S)-N-(2-((4-(3-((cis)-2,6-dimethylmorpholino)phenyl)thiazol-2-yl)amino)-2-oxoethyl)-4-(hydroxymethyl)-4-methylchroman-8-carboxamide] are more than 5 µM, more than 30%, more than 60% and 1 to 5 µM.
For `C[C@@H]1CN(c2cccc(-c3csc(NC(=O)CNC(=O)c4cnc5c(c4)[C@@](C)(C#N)CC5)n3)c2)C[C@H](C)O1` [Compound 253, (S)-5-cyano-N-(2-((4-(3-((cis)-2,6-dimethylmorpholino)phenyl)thiazol-2-yl)amino)-2-oxoethyl)-5-methyl-6,7-dihydro-5H-cyclopenta[b]pyridine-3-carboxamide] the same measures were 1 to 5 µM, more than 50%, more than 90% and 1 to 5 µM.
In the case of `C[C@@H]1CN(c2cccc(-c3csc(NC(=O)CNC(=O)c4ccc5c(c4)[C@](C)(C#N)COC5)n3)c2)C[C@H](C)O1` [Compound 254, (R)-4-cyano-N-(2-((4-(3-((cis)-2,6-dimethylmorpholino)phenyl)thiazol-2-yl)amino)-2-oxoethyl)-4-methylisochroman-6-carboxamide], in assay [1], the IC50 is less than 0.1 µM and the Emax was more than 95%. Also, in assay [2], the “BRM Max % Inhibition” value was more than 95% and the IC50 is less than 0.1 µM.
Turning to `C[C@@H]1CN(c2cccc(-c3csc(NC(=O)CNC(=O)c4ccc5c(c4)[C@@](C)(C#N)CCO5)n3)c2)C[C@H](C)O1` [Compound 255, (4S)-4-cyano-N-[2-[[4-[3-[(cis)-2,6-dimethylmorpholin-4-yl]phenyl]thiazol-2-yl]amino]-2-oxo-ethyl]-4-methyl-chromane-6-carboxamide], in assay [1], the concentration for half-maximal inhibition (IC50) was more than 5 µM and the Emax was more than 40%. In addition, in assay [2], the “BRM Max % Inhibition” value is reported as more than 70% and the IC50 lay in the range of 1 to 5 µM.
For `C[C@@H]1CN(c2cccc(-c3csc(NC(=O)CNC(=O)c4ccc5c(c4)[C@]4(CCC[C@H]4O)CC5)n3)c2)C[C@H](C)O1` [Compound 256, (1S,2R)-N-(2-((4-(3-((cis)-2,6-dimethylmorpholino)phenyl)thiazol-2-yl)amino)-2-oxoethyl)-2-hydroxy-2′,3′-dihydrospiro[cyclopentane-1,1′-indene]-6′-carboxamide] the same measures were more than 5 µM, less than 30%, more than 60% and 1 to 5 µM.
On the same counts, the results for `Cn1cnc2ccc(-c3csc(NC(=O)CNC(=O)c4ccc5c(c4)[C@@](C)(CO)CC5)n3)cc21` [Compound 257, (S)-3-(hydroxymethyl)-3-methyl-N-(2-((4-(1-methyl-1H-benzo[d]imidazol-6-yl)thiazol-2-yl)amino)-2-oxoethyl)-2,3-dihydro-1H-indene-5-carboxamide] are more than 5 µM, more than 30%, more than 70% and 1 to 5 µM.
